Test results as given in the NIST ThermoML archive (doi:10.1021/je100220c).

Assay: excess molar enthalpy (molar enthalpy of mixing); xn = mol fraction of the nth substance listed
Conditions: Liquid, Flow calorimetry

CC(C)=O [acetone] + O=C=O
excess molar enthalpy [kcal/mol]
Conditions | 313.15 K | 323.15 K | 333.15 K
9000 kPa, x2 = 0.095 | -0.109 | – | –
9000 kPa, x2 = 0.102 | – | -0.174 | -0.18
9000 kPa, x2 = 0.158 | – | -0.262 | –
9000 kPa, x2 = 0.18 | -0.223 | – | -0.313
9000 kPa, x2 = 0.246 | -0.287 | -0.406 | -0.424
9000 kPa, x2 = 0.319 | – | -0.512 | –
9000 kPa, x2 = 0.337 | -0.357 | – | -0.571
9000 kPa, x2 = 0.424 | – | -0.643 | -0.702
9000 kPa, x2 = 0.432 | -0.446 | – | –
9000 kPa, x2 = 0.507 | -0.484 | -0.749 | -0.8
9000 kPa, x2 = 0.586 | -0.532 | -0.834 | –
9000 kPa, x2 = 0.625 | – | – | -0.958
9000 kPa, x2 = 0.662 | -0.547 | – | –
9000 kPa, x2 = 0.699 | – | -0.957 | -1.02
9000 kPa, x2 = 0.771 | -0.565 | -0.998 | -1.04
9000 kPa, x2 = 0.805 | – | -0.998 | –
9000 kPa, x2 = 0.807 | – | – | -1
9000 kPa, x2 = 0.84 | -0.534 | -0.968 | –
9000 kPa, x2 = 0.9 | -0.487 | – | –
9000 kPa, x2 = 0.906 | – | -0.821 | -0.485
9000 kPa, x2 = 0.938 | -0.415 | -0.624 | -0.289
9000 kPa, x2 = 0.969 | -0.287 | -0.271 | –
12000 kPa, x2 = 0.108 | -0.0772 | -0.0963 | –
12000 kPa, x2 = 0.189 | -0.137 | – | –
12000 kPa, x2 = 0.209 | – | -0.182 | –
12000 kPa, x2 = 0.258 | -0.175 | – | –
12000 kPa, x2 = 0.305 | – | -0.254 | –
12000 kPa, x2 = 0.332 | -0.22 | – | –
12000 kPa, x2 = 0.351 | – | -0.29 | –
12000 kPa, x2 = 0.395 | -0.251 | – | –
12000 kPa, x2 = 0.438 | – | -0.352 | –
12000 kPa, x2 = 0.464 | -0.279 | – | –
12000 kPa, x2 = 0.562 | -0.307 | -0.403 | –
12000 kPa, x2 = 0.646 | – | -0.423 | –
12000 kPa, x2 = 0.675 | -0.316 | – | –
12000 kPa, x2 = 0.747 | – | -0.429 | –
12000 kPa, x2 = 0.781 | -0.287 | – | –
12000 kPa, x2 = 0.801 | – | -0.411 | –
12000 kPa, x2 = 0.847 | -0.245 | – | –
12000 kPa, x2 = 0.879 | – | -0.332 | –
12000 kPa, x2 = 0.911 | -0.176 | – | –
12000 kPa, x2 = 0.941 | – | -0.223 | –
12000 kPa, x2 = 0.971 | -0.0612 | -0.132 | –
15000 kPa, x2 = 0.111 | -0.0662 | -0.0736 | -0.0887
15000 kPa, x2 = 0.194 | -0.109 | -0.127 | –
15000 kPa, x2 = 0.215 | – | – | -0.162
15000 kPa, x2 = 0.264 | -0.148 | -0.171 | –
15000 kPa, x2 = 0.312 | – | – | -0.225
15000 kPa, x2 = 0.34 | -0.182 | – | –
15000 kPa, x2 = 0.359 | – | -0.216 | –
15000 kPa, x2 = 0.404 | – | – | -0.285
15000 kPa, x2 = 0.456 | -0.217 | – | –
15000 kPa, x2 = 0.473 | – | -0.267 | –
15000 kPa, x2 = 0.489 | – | – | -0.326
15000 kPa, x2 = 0.53 | -0.239 | -0.283 | –
15000 kPa, x2 = 0.586 | -0.244 | – | –
15000 kPa, x2 = 0.609 | – | -0.297 | -0.364
15000 kPa, x2 = 0.647 | -0.244 | – | –
15000 kPa, x2 = 0.683 | – | -0.296 | -0.372
15000 kPa, x2 = 0.719 | -0.234 | – | –
15000 kPa, x2 = 0.753 | – | – | -0.36
15000 kPa, x2 = 0.787 | -0.212 | -0.268 | –
15000 kPa, x2 = 0.82 | – | – | -0.31
15000 kPa, x2 = 0.852 | -0.173 | -0.223 | –
15000 kPa, x2 = 0.883 | – | – | -0.248
15000 kPa, x2 = 0.913 | -0.119 | -0.156 | –
15000 kPa, x2 = 0.915 | – | – | -0.202
15000 kPa, x2 = 0.943 | -0.087 | -0.117 | -0.156
15000 kPa, x2 = 0.972 | -0.0457 | -0.0633 | -0.0817
18000 kPa, x2 = 0.114 | -0.0631 | -0.0648 | –
18000 kPa, x2 = 0.198 | -0.0997 | – | –
18000 kPa, x2 = 0.219 | – | -0.124 | –
18000 kPa, x2 = 0.269 | -0.129 | – | –
18000 kPa, x2 = 0.318 | – | -0.174 | –
18000 kPa, x2 = 0.346 | -0.161 | – | –
18000 kPa, x2 = 0.41 | -0.187 | -0.211 | –
18000 kPa, x2 = 0.479 | -0.202 | -0.233 | –
18000 kPa, x2 = 0.577 | -0.215 | -0.248 | –
18000 kPa, x2 = 0.652 | -0.22 | -0.245 | –
18000 kPa, x2 = 0.724 | -0.205 | -0.231 | –
18000 kPa, x2 = 0.791 | -0.173 | -0.205 | –
18000 kPa, x2 = 0.855 | -0.136 | -0.167 | –
18000 kPa, x2 = 0.915 | -0.0915 | -0.108 | –
18000 kPa, x2 = 0.944 | – | -0.0774 | –
18000 kPa, x2 = 0.956 | -0.0521 | – | –
18000 kPa, x2 = 0.973 | – | -0.0445 | –
